Source: ChEMBL document CHEMBL3885861, “Open TG-GATES”

Species: Rattus norvegicus
Assay: Open TG-GATES - Regimen: Single
Type: toxicity, organism-based, Sprague-Dawley
Set-up: regimen Single, gender Male, age 6 weeks
Settings: in vivo, po, route gavage; for Eos / Fbg / Hb / Ht / Lym / MCH / MCHC / MCV / Mono / Neu / PT / Plat / RBC / Ret / APTT / Bas / WBC: tissue Blood; for KIDNEY_L / KIDNEY_R / KIDNEY_TOTAL: tissue Kidney; for LIVER: tissue Liver; for ALP / ALT / AST / BUN / CRE / Ca / DBIL / GLC / IP / K / LDH / Na / PL / RALB / TBIL / TC / TG / TP / gamma-GTP: tissue Plasma
[1] = 50 mg/kg, 3 h, dose level Middle
[2] = 50 mg/kg, 6 h, dose level Middle
[3] = 50 mg/kg, 9 h, dose level Middle
[4] = 50 mg/kg, 24 h, dose level Middle
[5] = 150 mg/kg, 3 h, dose level High
[6] = 150 mg/kg, 6 h, dose level High
[7] = 150 mg/kg, 9 h, dose level High
[8] = 150 mg/kg, 24 h, dose level High

## Oc1ncnc2[nH]ncc12 [ALLOPURINOL]
[1]
  Eos: 0.8%
  Fbg: 209.6 mg/dL
  Hb: 14 g/dL
  Ht: 41.6%
  Lym: 80%
  MCH: 21.9 pg
  MCHC: 33.7%
  MCV: 64.9 fL
  Mono: 8.2%
  Neu: 11.2%
  PT: 12.2 s
  Plat: 109.1 x10_4/uL
  RBC: 640.4 x10_4/ul
  Ret: 7.8%
  KIDNEY_L: 1 g
  KIDNEY_R: 1.1 g
  KIDNEY_TOTAL: 2.1 g
  LIVER: 9.9 g
  ALP: 877.8 IU/L
  ALT: 30.4 IU/L
  AST: 62.8 IU/L
  BUN: 15.6 mg/dL
  CRE: 0.6 mg/dL
  Ca: 11.2 mg/dL
  DBIL: 0.1 mg/dL
  GLC: 195.4 mg/dL
  IP: 9.9 mg/dL
  K: 4.6 meq/L
  LDH: 90.6 IU/L
  Na: 140 meq/L
  PL: 136.2 mg/dL
  RALB: 3.8 g/dL
  TBIL: 0.4 mg/dL
  TC: 80.4 mg/dL
  TG: 36.6 mg/dL
  TP: 5.6 g/dL
  gamma-GTP: 1 IU/L
[2]
  TERMINAL_BW: 208.2 g
  APTT: 16.7 s
  Bas: 0%
  Eos: 0.8%
  Fbg: 218.8 mg/dL
  Hb: 13.6 g/dL
  Ht: 40.6%
  Lym: 69%
  MCH: 21.4 pg
  MCHC: 33.5%
  MCV: 64 fL
  Mono: 9.2%
  Neu: 21.2%
  PT: 12.3 s
  Plat: 98.1 x10_4/uL
  RBC: 634 x10_4/ul
  Ret: 8.1%
  WBC: 122.8 x10_2/uL
  KIDNEY_L: 1.1 g
  KIDNEY_R: 1.2 g
  KIDNEY_TOTAL: 2.2 g
  LIVER: 9.5 g
  ALP: 927.4 IU/L
  ALT: 29.6 IU/L
  AST: 63.6 IU/L
  BUN: 15 mg/dL
  CRE: 0.5 mg/dL
  Ca: 11.6 mg/dL
  DBIL: 0.014 mg/dL
  GLC: 185 mg/dL
  K: 4.8 meq/L
  LDH: 81.2 IU/L
  Na: 140 meq/L
  PL: 130.6 mg/dL
  RALB: 3.7 g/dL
  TBIL: 0.4 mg/dL
  TC: 72.4 mg/dL
  TG: 58.8 mg/dL
  TP: 5.5 g/dL
  gamma-GTP: 1 IU/L
[3]
  TERMINAL_BW: 207.1 g
  APTT: 16.8 s
  Bas: 0%
  Eos: 1.2%
  Fbg: 222.6 mg/dL
  Hb: 13.7 g/dL
  Ht: 40.9%
  Lym: 67.2%
  MCH: 22 pg
  MCHC: 33.5%
  MCV: 65.9 fL
  Mono: 4.6%
  Neu: 27.4%
  PT: 12.5 s
  Plat: 108.6 x10_4/uL
  RBC: 622 x10_4/ul
  Ret: 8.9%
  WBC: 86.1 x10_2/uL
  KIDNEY_L: 1 g
  KIDNEY_R: 1 g
  KIDNEY_TOTAL: 2 g
  LIVER: 8.8 g
  ALP: 846.2 IU/L
  ALT: 29.4 IU/L
  AST: 60.2 IU/L
  BUN: 12.2 mg/dL
  CRE: 0.4 mg/dL
  DBIL: 0.044 mg/dL
  GLC: 178.4 mg/dL
  IP: 10.9 mg/dL
  K: 4.6 meq/L
  LDH: 80.8 IU/L
  Na: 139.2 meq/L
  PL: 147 mg/dL
  RALB: 3.6 g/dL
  TBIL: 0.4 mg/dL
  TC: 82.8 mg/dL
  TG: 30.2 mg/dL
  TP: 5.5 g/dL
  gamma-GTP: 1.4 IU/L
[4]
  TERMINAL_BW: 219.7 g
  APTT: 16.3 s
  Bas: 0%
  Eos: 1.2%
  Fbg: 229.6 mg/dL
  Hb: 13.6 g/dL
  Ht: 40.6%
  Lym: 81.2%
  MCH: 21.2 pg
  MCHC: 33.4%
  MCV: 63.5 fL
  Mono: 4.8%
  Neu: 13.2%
  PT: 12 s
  Plat: 98.8 x10_4/uL
  RBC: 641 x10_4/ul
  Ret: 6.9%
  WBC: 111.4 x10_2/uL
  KIDNEY_L: 1 g
  KIDNEY_R: 1 g
  KIDNEY_TOTAL: 2 g
  ALP: 1004.2 IU/L
  ALT: 32 IU/L
  AST: 63 IU/L
  BUN: 18.6 mg/dL
  CRE: 0.5 mg/dL
  Ca: 11 mg/dL
  DBIL: 0.022 mg/dL
  GLC: 183.4 mg/dL
  IP: 7.9 mg/dL
  K: 4.9 meq/L
  LDH: 88.4 IU/L
  Na: 139.2 meq/L
  PL: 162.4 mg/dL
  RALB: 3.8 g/dL
  TBIL: 0.3 mg/dL
  TC: 81.4 mg/dL
  TG: 120 mg/dL
  TP: 5.8 g/dL
  gamma-GTP: 1.6 IU/L
[5]
  TERMINAL_BW: 210.3 g
  APTT: 16.8 s
  Bas: 0%
  Eos: 0.8%
  Fbg: 220.2 mg/dL
  Hb: 13.9 g/dL
  Ht: 41.3%
  Lym: 75%
  MCH: 21.7 pg
  MCHC: 33.6%
  MCV: 64.6 fL
  Mono: 10%
  Neu: 14%
  PT: 12.4 s
  Plat: 112 x10_4/uL
  RBC: 640.6 x10_4/ul
  Ret: 8.1%
  WBC: 82 x10_2/uL
  KIDNEY_L: 1.1 g
  KIDNEY_R: 1.1 g
  KIDNEY_TOTAL: 2.2 g
  LIVER: 9.9 g
  ALP: 830.8 IU/L
  ALT: 34.6 IU/L
  AST: 63.8 IU/L
  BUN: 13 mg/dL
  CRE: 0.5 mg/dL
  Ca: 11.1 mg/dL
  DBIL: 0.046 mg/dL
  GLC: 191.8 mg/dL
  K: 4.7 meq/L
  LDH: 160.4 IU/L
  Na: 140.2 meq/L
  PL: 129.8 mg/dL
  RALB: 3.8 g/dL
  TBIL: 0.4 mg/dL
  TC: 75.8 mg/dL
  TG: 36.6 mg/dL
  TP: 5.6 g/dL
  gamma-GTP: 1.6 IU/L
[6]
  TERMINAL_BW: 208.4 g
  APTT: 16.2 s
  Bas: 0%
  Eos: 0.6%
  Fbg: 227.4 mg/dL
  Hb: 14.1 g/dL
  Ht: 42.2%
  Lym: 64.8%
  MCH: 21.8 pg
  MCHC: 33.5%
  MCV: 65.1 fL
  Mono: 6.6%
  Neu: 28%
  PT: 12.3 s
  RBC: 648.6 x10_4/ul
  Ret: 7.8%
  WBC: 115.3 x10_2/uL
  KIDNEY_L: 1 g
  KIDNEY_R: 1 g
  KIDNEY_TOTAL: 2.1 g
  LIVER: 9.5 g
  ALP: 1127.2 IU/L
  ALT: 29 IU/L
  AST: 61.6 IU/L
  BUN: 16.2 mg/dL
  CRE: 0.5 mg/dL
  Ca: 11.6 mg/dL
  DBIL: 0.016 mg/dL
  GLC: 191.6 mg/dL
  K: 4.9 meq/L
  LDH: 149 IU/L
  Na: 140.8 meq/L
  PL: 134.6 mg/dL
  RALB: 3.9 g/dL
  TBIL: 0.3 mg/dL
  TC: 72 mg/dL
  TG: 47 mg/dL
  TP: 5.7 g/dL
  gamma-GTP: 0.8 IU/L
[7]
  TERMINAL_BW: 205 g
  APTT: 16.9 s
  Bas: 0%
  Eos: 0.8%
  Fbg: 230.2 mg/dL
  Hb: 14.1 g/dL
  Ht: 42.1%
  Lym: 65.4%
  MCH: 21.4 pg
  MCHC: 33.6%
  MCV: 63.6 fL
  Mono: 5.4%
  Neu: 28.6%
  PT: 12.3 s
  Plat: 110.4 x10_4/uL
  RBC: 662.2 x10_4/ul
  Ret: 8.1%
  WBC: 82.6 x10_2/uL
  KIDNEY_L: 1.1 g
  KIDNEY_R: 1.1 g
  KIDNEY_TOTAL: 2.2 g
  LIVER: 9 g
  ALP: 832.2 IU/L
  ALT: 26 IU/L
  AST: 62.2 IU/L
  BUN: 18.8 mg/dL
  CRE: 0.5 mg/dL
  Ca: 11.1 mg/dL
  DBIL: 0.028 mg/dL
  GLC: 199.2 mg/dL
  IP: 11.6 mg/dL
  K: 4.7 meq/L
  LDH: 162.2 IU/L
  Na: 140.4 meq/L
  PL: 151 mg/dL
  RALB: 3.9 g/dL
  TBIL: 0.4 mg/dL
  TC: 80 mg/dL
  TG: 53 mg/dL
  TP: 5.9 g/dL
  gamma-GTP: 1.8 IU/L
[8]
  TERMINAL_BW: 220.7 g
  APTT: 16.2 s
  Bas: 0%
  Eos: 1.2%
  Fbg: 319.8 mg/dL
  Hb: 13.8 g/dL
  Ht: 41%
  Lym: 70.6%
  MCH: 21.9 pg
  MCHC: 33.6%
  MCV: 65.1 fL
  Mono: 9.8%
  Neu: 18.2%
  PT: 12.1 s
  Plat: 118.1 x10_4/uL
  RBC: 629.4 x10_4/ul
  Ret: 7.5%
  WBC: 99.2 x10_2/uL
  KIDNEY_L: 1.2 g
  KIDNEY_R: 1.3 g
  KIDNEY_TOTAL: 2.5 g
  ALP: 923.6 IU/L
  ALT: 28.4 IU/L
  AST: 61.8 IU/L
  BUN: 24.8 mg/dL
  CRE: 0.6 mg/dL
  Ca: 11.2 mg/dL
  DBIL: 0.048 mg/dL
  GLC: 196 mg/dL
  IP: 9 mg/dL
  K: 4.7 meq/L
  LDH: 157 IU/L
  Na: 139.8 meq/L
  PL: 159.6 mg/dL
  RALB: 3.8 g/dL
  TBIL: 0.3 mg/dL
  TC: 90.6 mg/dL
  TG: 87.2 mg/dL
  TP: 6 g/dL
  gamma-GTP: 2 IU/L
